In ChEMBL document CHEMBL3886685, “Nitrogen-containing bicyclic aromatic heterocyclic compound” (2016) one finds IC50 data, which are given here for nine molecules.

The test concerns the target Cathepsin S (Homo sapiens, UniProt P25774). Nature of the test: Inhibition Assay: 5 μL of a human cathepsin S enzyme (R&D1183-CY-010) was added to a 96-well plate so as to be 20 ng/well. Next, 10-fold dilution of the test compound (a 10 mM DMSO solution) was serially performed with a buffer solution for assay (a solution of 50 mM sodium methoxide, 250 mM sodium chloride and 5 mM dithiothreitol (DTT), adjusted to pH=4.5 with 1 N hydrochloric acid) six times such that the final concentration becomes 0.1 nM to 10 μM then, 20 μL of each of the solutions was added to the wells (the final DMSO concentration was 0.1%), and 25 μL of synthetic substrate VVR-AMC (3211-V manufactured by PEPTIDE […], INC.) was added thereto such that the final concentration becomes 40 μM, thereby starting a enzyme reaction. A fluorescence intensity (an excitation wavelength: 380 nm and a fluorescent wavelength: 460 nm) was measured at 37° C. for 10 minutes immediately after the start of the reaction using a fluorescence spectrophotometer (SPECTRA MAX GEMINI, manu.

By pIC50 is commonly meant −log10 of the IC50, conventionally taken in molar units. Read a low pIC50 as a high IC50.

pIC50: −log10 of the molar value.

Chain of Cathepsin S (P25774 whole entry): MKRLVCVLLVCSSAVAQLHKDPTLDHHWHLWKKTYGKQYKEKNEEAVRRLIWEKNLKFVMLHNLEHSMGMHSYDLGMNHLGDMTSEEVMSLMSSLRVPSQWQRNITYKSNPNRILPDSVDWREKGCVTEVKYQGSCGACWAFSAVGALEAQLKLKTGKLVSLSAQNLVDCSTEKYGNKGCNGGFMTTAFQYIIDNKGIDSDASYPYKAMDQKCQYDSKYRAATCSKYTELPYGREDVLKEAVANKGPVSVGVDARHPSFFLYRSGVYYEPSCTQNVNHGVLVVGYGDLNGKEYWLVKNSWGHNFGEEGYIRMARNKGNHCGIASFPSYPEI

`N#Cc1nc(-c2ccc(OCCC3CCN(CCO)CC3)c(C(F)(F)F)c2)c2ccn(CC3CCOC3)c2n1` (centres undefined) had a pIC50 of 8.51.

`CN1CCC(C(=O)N2CCC(CCOc3ccc(-c4nc(C#N)nc5c4ncn5C)cc3C(F)(F)F)CC2)CC1` had a negative-log IC50 (pIC50) of 8.57. Molecule `CN(C)C(=O)CN1CCC(CCOc2ccc(-c3nc(C#N)nc4c3ccn4CCO)cc2C(F)(F)F)CC1` showed a pIC50 of 8.72.

With `N#Cc1nc(-c2ccc(OCCC3CCN(C(CF)CF)CC3)c(C#N)c2)c2ccn(CC3CCOC3)c2n1` (centres undefined), the pIC50 is 8.05. In turn, `CN1C[C@@H](O)C[C@H]1C(=O)N1CCC(CCOc2ccc(-c3nc(C#N)nc4c3ncn4C)cc2C(F)(F)F)CC1` had a pIC50 of 8.64. For `CC(C)N1CCC[C@H]1C(=O)N1CCC(CCOc2ncc(-c3nc(C#N)nc4c3ncn4C)cc2C(F)(F)F)CC1`, the pIC50 is 8.68. With `Cn1cnc2c(-c3cc(F)c(OCCC4CCNCC4)c(C(F)(F)F)c3)nc(C#N)nc21`, the pIC50 was 8.72.

`CCn1ccc2c(-c3ccc(OCCC4CCNCC4)c(C(F)(F)F)c3)nc(C#N)nc21` showed a pIC50 of 8.52. The value for `N#Cc1nc(-c2cnc(OCCC3CCNCC3)c(C(F)(F)F)c2)c2ccn(CC(=O)N3CCOCC3)c2n1` was 8.51.
